In brackets after ≈: the same amount, converted by molar mass. Where two headings read alike, the source gives them in different places.
Experiments:
Penicillium spp. = assay: Broth dilution antifungal susceptibility testing, MIC; assay type: cell-based; conditions: Penicillium spp. strain DM 2006 1285b
Procedure: (§1) Broth Dilution Antifungal Susceptibility Testing
(§2) The sensitivity of relevant fungal strains to the peptides was determined using Clinical Laboratory Standard Institute (CLSI; formerly NCCLS) Approved Standards. Fungal susceptibility was tested using “Reference Method for Broth Dilution Antifungal Susceptibility Testing of Filamentous Fungi; Approved Standard M38-P”, and yeast susceptibility was tested using “Reference Method for Broth Dilution Antifungal Susceptibility Testing of Yeasts; Approved Standard—Second Edition M27-A”.

Alternaria spp. = assay: as above; assay type: cell-based; conditions: Alternaria spp. strain DM 2006 1218a
Procedure: as §1, §2

Fusarium solani = assay: as above; assay type: cell-based; conditions: Fusarium solani strain NCPF2877
Procedure: as §1, §2

[1] = tested on: Scopulariopsis brevicaulis; assay: as above; assay type: cell-based; conditions: Scopulariopsis brevicaulis strain DM 2006 1025
Procedure: as §1, §2

C. krusei = assay type: cell-based, Candida krusei
Procedure: as §1
(§3) The sensitivity of relevant fungal strains to the peptides was determined using Clinical Laboratory Standard Institute (CLSI; formerly NCCLS) Approved Standards.

C. parapsilosis = assay type: cell-based, Candida parapsilosis
Procedure: as §1
The sensitivity of relevant fungal strains to the peptides was determined using Clinical Laboratory Standard Institute (CLSI; formerly NCCLS) Approved Standards. Fungal susceptibility was tested using “Reference Method for Broth Dilution Antifungal Susceptibility Testing of Filamentous Fungi; […];

A. nidulans = assay: Broth dilution antifungal susceptibility testing of filamentous fungi (CLSI M38-P), MIC; assay type: cell-based, Aspergillus nidulans
Procedure: as §1, §2

Cryptococcus neoformans = assay: Broth dilution antifungal susceptibility testing of yeasts (CLSI M27-A), MIC; assay type: cell-based; conditions: Cryptococcus neoformans strain DSM11959
Procedure: as §1, §2

C. tropicalis = assay: as above; assay type: cell-based, Candida tropicalis
Procedure: as §1, §2

C. albicans = assay type: cell-based, Candida albicans
Procedure: as §1, §3

A. niger = assay: Broth dilution antifungal susceptibility testing of filamentous fungi (CLSI M38-P), MIC; assay type: cell-based, Aspergillus niger
Procedure: as §1, §2

C. glabrata = assay: Broth dilution antifungal susceptibility testing of yeasts (CLSI M27-A), MIC; assay type: cell-based, Candida glabrata
Procedure: as §1, §2

SMILES: N=C(N)NCCC[C@@H](N)C(=O)N[C@H](CCCNC(=N)N)C(=O)N[C@H](CCCNC(=N)N)C(=O)N[C@H](CCCNC(=N)N)C(=O)N[C@H](CCCNC(=N)N)C(=O)N[C@H](CCCNC(=N)N)C(=O)N[C@H](CCCNC(=N)N)C(=O)N[C@H](CCCNC(=N)N)C(=O)N[C@H](CCCNC(=N)N)C(=O)N[C@H](CCCNC(=N)N)C(=O)N[C@H](CCCNC(=N)N)C(=O)N[C@H](CCCNC(=N)N)C(=O)N[C@H](CCCNC(=N)N)C(=O)O [NP339, dRdRdRdRdRdRdRdRdRdRdRdRdR]
- MIC (Penicillium spp.): 15.6 µM (≈ 32 µg/mL)
- MIC (Alternaria spp.): 7.8 µM (≈ 16 µg/mL)
- MIC (Fusarium solani): 3.9 µM (≈ 7.99 µg/mL)
- MIC [1]: 1 µM (≈ 2.05 µg/mL)
- MIC (C. krusei; C. krusei strain AM2005/0492): 1 µM (≈ 2.05 µg/mL)
- MIC (C. krusei; C. krusei strain AM2005/0494): 1 µM (≈ 2.05 µg/mL)
- MIC (C. krusei; C. krusei strain AM2005/0496): 2 µM (≈ 4.1 µg/mL)
- MIC (C. krusei; C. krusei strain AM2005/0498): 1 µM (≈ 2.05 µg/mL)
- MIC (C. krusei; C. krusei strain AM2005/0525): 2 µM (≈ 4.1 µg/mL)
- MIC (C. krusei; C. krusei strain AM2005/0531): 2 µM (≈ 4.1 µg/mL)
- MIC (C. krusei; C. krusei strain AM2006/0127): 1 µM (≈ 2.05 µg/mL)
- MIC (C. krusei; C. krusei strain AM2007/0102): 2 µM (≈ 4.1 µg/mL)
- MIC (C. krusei; C. krusei strain AM2007/0103): 2 µM (≈ 4.1 µg/mL)
- MIC (C. krusei; C. krusei strain AM2007/0104): 1 µM (≈ 2.05 µg/mL)
- MIC (C. krusei; C. krusei strain AM2007/0105): 1 µM (≈ 2.05 µg/mL)
- MIC (C. krusei; C. krusei strain AM2007/0106): 1 µM (≈ 2.05 µg/mL)
- MIC (C. krusei; C. krusei strain AM2007/0107): 1 µM (≈ 2.05 µg/mL)
- MIC (C. krusei; C. krusei strain AM2007/0109): 1 µM (≈ 2.05 µg/mL)
- MIC (C. krusei; C. krusei strain AM30274.04): 2 µM (≈ 4.1 µg/mL)
- MIC (C. krusei; C. krusei strain AM30308.03.05): 1 µM (≈ 2.05 µg/mL)
- MIC (C. krusei; C. krusei strain AM30332.04.05): 2 µM (≈ 4.1 µg/mL)
- MIC (C. krusei; C. krusei strain AM30455.04.05): 1 µM (≈ 2.05 µg/mL)
- MIC (C. krusei; C. krusei strain AM31194/04/05): 2 µM (≈ 4.1 µg/mL)
- MIC (C. krusei; C. krusei strain AM31300/04/05): 2 µM (≈ 4.1 µg/mL)
- MIC (C. krusei; C. krusei strain ATCC6258): 2 µM (≈ 4.1 µg/mL)
- MIC (C. parapsilosis; C. parapsilosis strain AM2004/0133): 1 to 2 µM
- MIC (C. parapsilosis; C. parapsilosis strain AM2005-0112): 2 µM (≈ 4.1 µg/mL)
- MIC (C. parapsilosis; C. parapsilosis strain AM2005/0233): 8 µM (≈ 16.4 µg/mL)
- MIC (C. parapsilosis; C. parapsilosis strain AM2005/0237): 1 µM (≈ 2.05 µg/mL)
- MIC (C. parapsilosis; C. parapsilosis strain AM2005/0238): 16 µM (≈ 32.8 µg/mL)
- MIC (C. parapsilosis; C. parapsilosis strain AM2005/0239): 1 µM (≈ 2.05 µg/mL)
- MIC (C. parapsilosis; C. parapsilosis strain AM2005/0242): 4 µM (≈ 8.19 µg/mL)
- MIC (C. parapsilosis; C. parapsilosis strain AM2005/0337): 2 to 16 µM
- MIC (C. parapsilosis; C. parapsilosis strain AM2007/0131): 4 to 32 µM
- MIC (C. parapsilosis; C. parapsilosis strain AM2007/0132): 16 to 32 µM
- MIC (C. parapsilosis; C. parapsilosis strain AM2007/0134): 4 to 32 µM
- MIC (C. parapsilosis; C. parapsilosis strain AM2007/0135): 1 to 2 µM
- MIC (C. parapsilosis; C. parapsilosis strain AM2007/0136): 2 µM (≈ 4.1 µg/mL)
- MIC (C. parapsilosis; C. parapsilosis strain AM2007/0137): 8 to 32 µM
- MIC (C. parapsilosis; C. parapsilosis strain AM2007/0138): 16 to 32 µM
- MIC (C. parapsilosis; C. parapsilosis strain AM2007/0139): 8 µM (≈ 16.4 µg/mL)
- MIC (C. parapsilosis; C. parapsilosis strain ATCC22019): 1 to 2 µM
- MIC (C. parapsilosis; C. parapsilosis strain ATCC90018): 2 µM (≈ 4.1 µg/mL)
- MIC (A. nidulans; A nidulans strain AFG97-71): 4000 µM (≈ 8190 µg/mL)
- MIC (A. nidulans; A nidulans strain AFG99-247): 256 µM (≈ 524 µg/mL)
- MIC (A. nidulans; A nidulans strain AFG99-1373): 62.5 µM (≈ 128 µg/mL)
- MIC (A. nidulans; A nidulans strain NCPF2691): 3.9 µM (≈ 7.99 µg/mL)
- MIC (A. nidulans; A. nidulans strain AFG00-676): 1000 µM (≈ 2050 µg/mL)
- MIC (A. nidulans; A. nidulans strain AFG01-835): 1000 µM (≈ 2050 µg/mL)
- MIC (A. nidulans; A. nidulans strain AFG01-1716): 62.5 µM (≈ 128 µg/mL)
- MIC (A. nidulans; A. nidulans strain AFG97-453): 62.5 µM (≈ 128 µg/mL)
- MIC (A. nidulans; A. nidulans strain AFG 98-281): 62.5 µM (≈ 128 µg/mL)
- MIC (A. nidulans; A. nidulans strain AFG99-2387): 62.5 µM (≈ 128 µg/mL)
- MIC (A. nidulans; A. nidulans strain AFG9811-35): 125 µM (≈ 256 µg/mL)
- MIC (A. nidulans; A. nidulans strain AFGR2952): 62.5 µM (≈ 128 µg/mL)
- MIC (Cryptococcus neoformans): 1 µM (≈ 2.05 µg/mL)
- MIC (C. tropicalis; C. tropicalis strain AM2004/0087): 1 µM (≈ 2.05 µg/mL)
- MIC (C. tropicalis; C. tropicalis strain AM2004/0088): 1 µM (≈ 2.05 µg/mL)
- MIC (C. tropicalis; C. tropicalis strain AM2004/0089): 1 µM (≈ 2.05 µg/mL)
- MIC (C. tropicalis; C. tropicalis strain AM2004/0090): 1 µM (≈ 2.05 µg/mL)
- MIC (C. tropicalis; C. tropicalis strain AM2004/0091): 1 µM (≈ 2.05 µg/mL)
- MIC (C. tropicalis; C. tropicalis strain ATCC750): 2 µM (≈ 4.1 µg/mL)
- MIC, Candida albicans ATCC90028 (C. albicans): 2 µM (≈ 4.1 µg/mL)
- MIC (A. niger; A. niger strain AFG 01-60): 62.5 µM (≈ 128 µg/mL)
- MIC (A. niger; A. niger strain AFG 01-237): 1000 µM (≈ 2050 µg/mL)
- MIC (A. niger; A. niger strain AFG 01-381): 62.5 µM (≈ 128 µg/mL)
- MIC (A. niger; A. niger strain AFG 01-385): 1000 µM (≈ 2050 µg/mL)
- MIC (A. niger; A. niger strain AFG 01-423): 62.5 µM (≈ 128 µg/mL)
- MIC (A. niger; A. niger strain AFG 01-783): 62.5 µM (≈ 128 µg/mL)
- MIC (A. niger; A. niger strain AFG 01-809): 62.5 µM (≈ 128 µg/mL)
- MIC (A. niger; A. niger strain AFG 01-1237): 62.5 µM (≈ 128 µg/mL)
- MIC (A. niger; A. niger strain AFG 01-1286): 62.5 µM (≈ 128 µg/mL)
- MIC (A. niger; A. niger strain AFG 01-1424): 62.5 µM (≈ 128 µg/mL)
- MIC (A. niger; A. niger strain AFG 01-1494): 62.5 µM (≈ 128 µg/mL)
- MIC (A. niger; A. niger strain AFG 01-2103): 62.5 µM (≈ 128 µg/mL)
- MIC (A. niger; A. niger strain AFG 01-2112): 62.5 µM (≈ 128 µg/mL)
- MIC (A. niger; A. niger strain AFG 01-2267): 62.5 µM (≈ 128 µg/mL)
- MIC (A. niger; A. niger strain AFG 01-2620): >4000 µM
- MIC (A. niger; A. niger strain AFG 01-2840): 62.5 µM (≈ 128 µg/mL)
- MIC (A. niger; A. niger strain AFG J940179): 62.5 µM (≈ 128 µg/mL)
- MIC (A. niger; A. niger strain AFG J970467): 62.5 µM (≈ 128 µg/mL)
- MIC (A. niger; A. niger strain NCPF2022): 7.8 µM (≈ 16 µg/mL)
- MIC (C. glabrata; C. glabrata strain AM2002/0085): 2 µM (≈ 4.1 µg/mL)
- MIC (C. glabrata; C. glabrata strain AM2002/0088): 1 µM (≈ 2.05 µg/mL)
- MIC (C. glabrata; C. glabrata strain AM2007/0113): 2 µM (≈ 4.1 µg/mL)
- MIC (C. glabrata; C. glabrata strain AM2007/0114): 1 µM (≈ 2.05 µg/mL)
- MIC (C. glabrata; C. glabrata strain AM2007/0115): 2 µM (≈ 4.1 µg/mL)
- MIC (C. glabrata; C. glabrata strain AM2007/0116): 1 µM (≈ 2.05 µg/mL)
- MIC (C. glabrata; C. glabrata strain AM2007/0117): 1 µM (≈ 2.05 µg/mL)
- MIC (C. glabrata; C. glabrata strain AM2007/0118): 2 µM (≈ 4.1 µg/mL)
- MIC (C. glabrata; C. glabrata strain AM2007/0119): 1 µM (≈ 2.05 µg/mL)
- MIC (C. glabrata; C. glabrata strain AM2007/0120): 2 µM (≈ 4.1 µg/mL)
- MIC (C. glabrata; C. glabrata strain AM2007/0121): 1 µM (≈ 2.05 µg/mL)
- MIC (C. glabrata; C. glabrata strain AM2007/0122): 1 µM (≈ 2.05 µg/mL)
- MIC (C. glabrata; C. glabrata strain AM2007/0123): 1 µM (≈ 2.05 µg/mL)
- MIC (C. glabrata; C. glabrata strain AM2007/0124): 1 µM (≈ 2.05 µg/mL)
- MIC (C. glabrata; C. glabrata strain AM2007/0125): 2 µM (≈ 4.1 µg/mL)
- MIC (C. glabrata; C. glabrata strain AM2007/0126): 1 µM (≈ 2.05 µg/mL)
- MIC (C. glabrata; C. glabrata strain AM2007/0127): 1 µM (≈ 2.05 µg/mL)
- MIC (C. glabrata; C. glabrata strain AM2007/0128): 1 µM (≈ 2.05 µg/mL)
- MIC (C. glabrata; C. glabrata strain AM2007/0129): 1 µM (≈ 2.05 µg/mL)
- MIC (C. glabrata; C. glabrata strain AM2007/0130): 1 µM (≈ 2.05 µg/mL)
